Experimental data reported in article PMC11575720 (RSC Advances, 2024).

Legend:
L. major PTR1 = target: T1, L. major PTR1 (Leishmania major, UniProt Q01782); test: L. major PTR1 enzyme inhibition assay; format: biochemical
T1 sequence (Q01782 1-288): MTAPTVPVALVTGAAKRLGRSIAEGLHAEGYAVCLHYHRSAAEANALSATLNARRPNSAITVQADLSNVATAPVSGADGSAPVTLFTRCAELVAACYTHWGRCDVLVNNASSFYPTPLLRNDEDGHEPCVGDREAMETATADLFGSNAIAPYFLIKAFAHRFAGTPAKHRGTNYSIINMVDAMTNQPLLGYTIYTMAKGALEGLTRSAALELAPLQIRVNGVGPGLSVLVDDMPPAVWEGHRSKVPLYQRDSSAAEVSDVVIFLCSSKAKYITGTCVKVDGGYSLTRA

L. major DHFR = L. major DHFR (Leishmania major, UniProt P07382); test: L. major DHFR; format: biochemical
Sequence of L. major DHFR (P07382 whole entry): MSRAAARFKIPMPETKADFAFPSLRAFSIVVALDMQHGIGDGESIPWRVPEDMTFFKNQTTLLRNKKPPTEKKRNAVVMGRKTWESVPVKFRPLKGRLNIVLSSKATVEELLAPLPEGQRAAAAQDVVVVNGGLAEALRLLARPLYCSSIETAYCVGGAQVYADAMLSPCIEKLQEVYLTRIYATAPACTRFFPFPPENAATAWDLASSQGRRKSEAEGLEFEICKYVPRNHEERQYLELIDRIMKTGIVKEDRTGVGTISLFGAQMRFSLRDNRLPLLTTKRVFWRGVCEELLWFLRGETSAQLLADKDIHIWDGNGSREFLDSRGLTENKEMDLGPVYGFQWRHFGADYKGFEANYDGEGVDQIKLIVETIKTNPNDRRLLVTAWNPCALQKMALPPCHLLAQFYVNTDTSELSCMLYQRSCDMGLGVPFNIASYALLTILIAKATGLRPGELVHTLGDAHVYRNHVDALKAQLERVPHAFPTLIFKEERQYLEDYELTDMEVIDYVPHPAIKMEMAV

Row | SMILES | IC50 (L. major PTR1) [µM] | IC50 (L. major DHFR) [µM]
1 | Cc1nc(NC(=S)NCc2ccco2)nc(-c2ccccc2)c1C(=O)N1CCC(C(=O)O)CC1 [Compound 20a, 1-(2-(3-(Furan-2-ylmethyl)thioureido)-4-methyl-6-phenylpyrimidine-5-carbonyl)piperidine-4-carboxylic acid] | 15.86 ± 0.01 | 2.63 ± 0.01
2 | Cc1nc(NC(=S)NCc2cccs2)nc(-c2ccccc2)c1C(=O)N1CCC(C(=O)O)CC1 [Compound 20b, 1-(4-Methyl-6-phenyl-2-(3-(thiophen-2-ylmethyl)thioureido)pyrimidine-5-carbonyl)piperidine-4-carboxylic acid] | 19.89 ± 0.01 | 1.14 ± 0.01
3 | O=C(NC(=S)Nc1cccc(O)c1)c1cccs1 [Compound 4g, N-((3-Hydroxyphenyl)carbamothioyl)thiophene-2-carboxamide] | 0.58 ± 0.05 | 8.09 ± 0.01
